Measured values taken from patent EP0777471B1, “INHIBITION OF LEUKOTRIENE BIOSYNTHESIS WITH UREA DERIVATIVES” (MINNESOTA MINING AND MANUFACTURING COMPANY, priority 1994, dated 1996).
Where “and” joins values, the source holds several entries; their conditions need not be identical. Equal entries are not always repeated. Where two headings read alike, the source gives them in different places.

What was measured:
[1] = test system: production of Leukotriene B4 (LTB4); assay: Dog ex vivo Leukotriene B4 inhibition (oral dosing, blood challenged with calcium ionophore); assay type: in vivo, beagle dogs; conditions: each entry one dog, negative = stimulation of LTB4 production; for % Inhibition 6 hour / % Inhibition 2 hour / % Inhibition 4 hour / % Inhibition 1 hour: 5 mg/Kg; for inhibition at 5 mg/kg: Canis lupus familiaris, po
In short: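 Beagle dogs (~10 kg) given compound orally by gavage in PEG 400 at 5 mg/kg; jugular blood drawn pre-dose and at selected post-dose times. Blood challenged with calcium ionophore 30 min at 37°C, plasma LTB4 measured by radioimmunoassay; % inhibition from post-dose versus pre-dose LTB4, one dog per value.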

[2] = test system: production of Leukotriene B4; assay: Rat ex vivo Leukotriene B4 inhibition (oral dosing, blood challenged with A23187); assay type: in vivo, Rats; conditions: two hours post dose
In short: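 Male CD rats (250 g, non-fasted) dosed orally with compound in PEG 400, 5 rats/group; blood drawn by cardiac puncture before and 2 h after dosing. Heparinized blood challenged with A23187 calcium ionophore, 30 min at 37°C; plasma LTB4 measured by radioimmunoassay. % inhibition = post-dose vs pre-dose LTB4 level.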

[3] = test system: production of Leukotriene C4 in mouse peritoneal macrophages; assay: In vitro mouse peritoneal macrophage Leukotriene C4 inhibition (zymosan-stimulated, LTC4 radioimmunoassay); assay type: cell-based; conditions: Zymosan 50 µg/mL
In short: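 Adherent peritoneal macrophages from female CD-1 mice were preincubated 15 minutes at 37°C with compound (10, 1 and 0.1 µM, duplicate; DMSO). They were then stimulated with 50 µg/mL zymosan for 1 to 2 hours. Leukotriene C4 released into the medium was measured by radioimmunoassay.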

[4] = 1 h, 1 hour post dose, read-out: % Inhibition 1 hour
[5] = 2 h, 2 hour post dose, read-out: % Inhibition 2 hour
[6] = 4 h, 4 hour post dose, read-out: % Inhibition 4 hour
[7] = 6 h, 6 hour post dose, read-out: % Inhibition 6 hour

CSc1ccc(NC(=O)N(C)O)cc1 [Compound 1, 1-Hydroxy-1-methyl-3-[4-(methylthio)phenyl]urea]
% Inhibition 6 hour ([1]; 6 hour post dose): 95%
inhibition at 5 mg/kg [1, 4]: 100%
inhibition at 5 mg/kg [1, 5]: 100%
inhibition at 5 mg/kg [1, 6]: 100%
inhibition at 5 mg/kg [1, 7]: 93%
%I ([2]; 5 mg/Kg): 18%
%I ([2]; 50 mg/Kg): 87%
IC50 [3]: < 1000 nM

COc1cccc(NC(=O)N(C)O)c1 [Compound 5, 1-hydroxy-3-(3-methoxyphenyl)-1-methylurea]
% Inhibition 2 hour ([1]; 2 hour post dose): 75%
% Inhibition 4 hour ([1]; 4 hour post dose): 99% and 44%
% Inhibition 6 hour ([1]; 6 hour post dose): 20% and 50%
inhibition at 5 mg/kg [1, 4]: 100%
%I ([2]; 50 mg/Kg): 82%
IC50 [3]: 200 nM

CN(O)C(=O)Nc1cccc(Br)c1 [Compound 6, 3-(3-bromophenyl)-1-hydroxy-1-methylurea]
% Inhibition 1 hour ([1]; 1 hour post dose): 100%
% Inhibition 2 hour ([1]; 2 hour post dose): 11% and 62%
% Inhibition 4 hour ([1]; 4 hour post dose): -36% and 27%
% Inhibition 6 hour ([1]; 6 hour post dose): -52% and 19%
inhibition at 5 mg/kg [1, 4]: 86%
%I ([2]; 5 mg/Kg): 39%
%I ([2]; 50 mg/Kg): 47%
IC50 [3]: < 100 nM

Cc1cccc(NC(=O)N(C)O)c1 [Compound 7, 1-hydroxy-1-methyl-3-(3-methylphenyl)urea]
% Inhibition 2 hour ([1]; 2 hour post dose): 99%
% Inhibition 4 hour ([1]; 4 hour post dose): 56%
% Inhibition 6 hour ([1]; 6 hour post dose): -21% and 48%
inhibition at 5 mg/kg [1, 4]: 100%
inhibition at 5 mg/kg [1, 5]: 100%
inhibition at 5 mg/kg [1, 6]: 70%
%I ([2]; 5 mg/Kg): 32%
IC50 [3]: < 1000 nM

CN(O)C(=O)Nc1cccc(F)c1 [Compound 8, 3-(3-fluorophenyl)-1-hydroxy-1-methylurea]
% Inhibition 4 hour ([1]; 4 hour post dose): 27% and 11%
% Inhibition 6 hour ([1]; 6 hour post dose): 9% and -32%
inhibition at 5 mg/kg [1, 4]: 100%
inhibition at 5 mg/kg [1, 5]: 92%
%I ([2]; 5 mg/Kg): 29%
IC50 [3]: 400 nM

CN(O)C(=O)Nc1cccc([N+](=O)[O-])c1 [Compound 9, 1-hydroxy-1-methyl-3-(3-nitrophenyl)urea]
% Inhibition 2 hour ([1]; 2 hour post dose): 34% and 83%
% Inhibition 4 hour ([1]; 4 hour post dose): 18%
% Inhibition 6 hour ([1]; 6 hour post dose): 54%
inhibition at 5 mg/kg [1, 4]: 100%
inhibition at 5 mg/kg [1, 6]: 33%
inhibition at 5 mg/kg [1, 7]: 56%
%I ([2]; 25 mg/Kg): 34%
IC50 [3]: 700 nM

CN(O)C(=O)Nc1ccccc1 [Compound 10, 1-hydroxy-1-methyl-3-phenylurea]
% Inhibition 4 hour ([1]; 4 hour post dose): 34%
% Inhibition 6 hour ([1]; 6 hour post dose): 42%
inhibition at 5 mg/kg [1, 4]: 100%
inhibition at 5 mg/kg [1, 5]: 100%
inhibition at 5 mg/kg [1, 6]: 49%
inhibition at 5 mg/kg [1, 7]: 52%
%I ([2]; 25 mg/Kg): 23%
%I ([2]; 50 mg/Kg): 41%
IC50 [3]: < 1000 nM

CSc1cccc(NC(=O)N(O)C(C)C)c1 [Compound 16, 1-hydroxy-1-(1-methylethyl)-3-[3-(methylthio)phenyl]urea]
% Inhibition 4 hour ([1]; 4 hour post dose): -8% and -18% and -14% and -80%
% Inhibition 6 hour ([1]; 6 hour post dose): -39% and -24% and -186%
inhibition at 5 mg/kg [1, 4]: 100%
inhibition at 5 mg/kg [1, 5]: 97%
%I ([2]; 25 mg/Kg): 74%
IC50 [3]: < 1000 nM

CC(C)N(O)C(=O)Nc1ccccc1 [Compound 17, 1-hydroxy-1-(1-methylethyl)-3-phenylurea]
% Inhibition 4 hour ([1]; 4 hour post dose): 70%
% Inhibition 6 hour ([1]; 6 hour post dose): 64% and 43%
inhibition at 5 mg/kg [1, 4]: 100%
inhibition at 5 mg/kg [1, 5]: 98%
%I ([2]; 50 mg/Kg): 26%
IC50 [3]: 600 nM

CC(C)N(O)C(=O)Nc1ccc(F)cc1 [Compound 18, 3-(4-fluorophenyl)-1-hydroxy-1-(1-methylethyl)urea]
% Inhibition 4 hour ([1]; 4 hour post dose): 57%
% Inhibition 6 hour ([1]; 6 hour post dose): 46% and -12%
inhibition at 5 mg/kg [1, 4]: 100%
inhibition at 5 mg/kg [1, 5]: 100%
inhibition at 5 mg/kg [1, 6]: 49%
%I ([2]; 50 mg/Kg): 3%
IC50 [3]: 800 nM

CC(C)N(O)C(=O)Nc1ccc(Br)cc1 [Compound 19, 3-(4-bromophenyl)-1-hydroxy-1-(1-methylethyl)urea]
% Inhibition 4 hour ([1]; 4 hour post dose): 11% and 74%
% Inhibition 6 hour ([1]; 6 hour post dose): 29% and 65%
inhibition at 5 mg/kg [1, 4]: 100%
inhibition at 5 mg/kg [1, 5]: 84%
%I ([2]; 50 mg/Kg): 3%
IC50 [3]: < 1000 nM

CC(C)N(O)C(=O)Nc1ccccc1F [Compound 20, 3-(2-fluorophenyl)-1-hydroxy-1-(1-methylethyl)urea]
% Inhibition 4 hour ([1]; 4 hour post dose): 64%
% Inhibition 6 hour ([1]; 6 hour post dose): 13%
inhibition at 5 mg/kg [1, 4]: 100%
inhibition at 5 mg/kg [1, 5]: 100%
inhibition at 5 mg/kg [1, 6]: 57%
inhibition at 5 mg/kg [1, 7]: 17%
%I ([2]; 50 mg/Kg): 19%
IC50 [3]: 200 nM

Cc1cccc(NC(=O)N(O)C(C)C)c1 [Compound 21, 1-hydroxy-1-(1-methylethyl)-3-(3-methylphenyl)urea]
% Inhibition 2 hour ([1]; 2 hour post dose): 88%
% Inhibition 4 hour ([1]; 4 hour post dose): 0% and -37%
% Inhibition 6 hour ([1]; 6 hour post dose): 24% and -8%
inhibition at 5 mg/kg [1, 4]: 100%
inhibition at 5 mg/kg [1, 5]: 95%
IC50 [3]: 100 nM

COc1ccc(NC(=O)N(O)C(C)C)cc1 [Compound 23, 1-hydroxy-3-(4-methoxyphenyl)-1-(1-methylethyl)urea]
% Inhibition 4 hour ([1]; 4 hour post dose): 84% and 82% and 59%
% Inhibition 6 hour ([1]; 6 hour post dose): 15% and 80% and 98% and 56%
inhibition at 5 mg/kg [1, 4]: 100%
inhibition at 5 mg/kg [1, 5]: 99%
%I ([2]; 50 mg/Kg): 45%
IC50 [3]: 200 nM

CC(C)N(O)C(=O)Nc1ccccc1Cl [Compound 24, 3-(2-chlorophenyl)-1-hydroxy-1-(1-methylethyl)urea]
% Inhibition 1 hour ([1]; 1 hour post dose): 100%
% Inhibition 2 hour ([1]; 2 hour post dose): 84%
% Inhibition 4 hour ([1]; 4 hour post dose): 14%
% Inhibition 6 hour ([1]; 6 hour post dose): -21% and -24%
inhibition at 5 mg/kg [1, 4]: 99%
inhibition at 5 mg/kg [1, 5]: 73%
inhibition at 5 mg/kg [1, 6]: 7%
%I ([2]; 50 mg/Kg): 29%
IC50 [3]: 200 nM

Cc1ccccc1NC(=O)N(O)C(C)C [Compound 25, 1-hydroxy-1-(1-methylethyl)-3-(2-methylphenyl)urea]
% Inhibition 1 hour ([1]; 1 hour post dose): 98%
% Inhibition 2 hour ([1]; 2 hour post dose): 57%
% Inhibition 4 hour ([1]; 4 hour post dose): -45% and -78%
% Inhibition 6 hour ([1]; 6 hour post dose): 9%
inhibition at 5 mg/kg [1, 4]: 100%
inhibition at 5 mg/kg [1, 5]: 51%
inhibition at 5 mg/kg [1, 7]: 7%
%I ([2]; 10 mg/Kg): 13%
%I ([2]; 25 mg/Kg): 44%
%I ([2]; 50 mg/Kg): 45% and 79%
IC50 [3]: 600 nM

CC(C)CCN(O)C(=O)Nc1ccccc1 [Compound 44, 1-hydroxy-1-(3-methylbutyl)-3-phenylurea]
% Inhibition 1 hour ([1]; 1 hour post dose): 80% and 52%
% Inhibition 2 hour ([1]; 2 hour post dose): 11% and 5%
% Inhibition 4 hour ([1]; 4 hour post dose): -19% and 12%
% Inhibition 6 hour ([1]; 6 hour post dose): -19% and 30%
%I ([2]; 50 mg/Kg): 18%
IC50 [3]: < 1000 nM

CC(C)CN(O)C(=O)Nc1ccccc1 [Compound 54, 1-Hydroxy-1-(2-methylpropyl)-3-phenylurea]
inhibition at 5 mg/kg [1, 4]: 99%
inhibition at 5 mg/kg [1, 5]: 97%
inhibition at 5 mg/kg [1, 6]: 33%
inhibition at 5 mg/kg [1, 7]: 43%
%I ([2]; 50 mg/Kg): 42%
IC50 [3]: 1300 nM

CN(O)C(=O)Nc1cccc(S(C)(=O)=O)c1 [Compound 59, 1-Hydroxy-1-methyl-3-[3-(methylsulfonyl)phenyl]urea]
% Inhibition 4 hour ([1]; 4 hour post dose): 83% and 75% and 78%
% Inhibition 6 hour ([1]; 6 hour post dose): 37% and 55% and 93% and 76%
inhibition at 5 mg/kg [1, 4]: 100%
inhibition at 5 mg/kg [1, 5]: 99%
%I ([2]; 5 mg/Kg): 9%
%I ([2]; 10 mg/Kg): 23%
%I ([2]; 20 mg/Kg): 20%
%I ([2]; 25 mg/Kg): 49%
%I ([2]; 50 mg/Kg): 65% and 87%
IC50 [3]: 300 nM
